In PubChem BioAssay AID330 (DTP/NCI, 2004):
Values joined by “and” are separate entries in the source; they are usually repeats but may differ in a detail not shown here. Equal entries are not always repeated. Toxic doses and inconclusive results are not listed. Peptide text beside a SMILES is read from it.

Test system: P388 leukemia ip, CD2F1 mice, survival T/C
Assay: NCI In Vivo Anticancer Drug Screen. Data for tumor model P388 Leukemia (intraperitoneal) in CD2F1 (CDF1) mice
Conditions: endpoint: median survival time, higher = longer survival
Procedure, shortened: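 Mice carrying the transplanted tumor received test compound or vehicle. Survival was recorded in each group, and the value is the treated-group measurement divided by that of the vehicle-treated control group.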

[1] = dose: 50.0 mg/kg/injection, schedule: Q01DX005 (ip), vehicle: Klucel (hydroxypropylcellulose) (HPC)
[2] = dose: 100.0 mg/kg/injection, schedule: Q01DX005 (ip), vehicle: Klucel (hydroxypropylcellulose) (HPC)
[3] = dose: 200.0 mg/kg/injection, schedule: Q01DX005 (ip), vehicle: Klucel (hydroxypropylcellulose) (HPC)
[4] = dose: 100.0 mg/kg/injection, schedule: Q04DX003 (ip), vehicle: Klucel (hydroxypropylcellulose) (HPC)
[5] = dose: 200.0 mg/kg/injection, schedule: Q04DX003 (ip), vehicle: Klucel (hydroxypropylcellulose) (HPC)
[6] = dose: 400.0 mg/kg/injection, schedule: Q04DX003 (ip), vehicle: Klucel (hydroxypropylcellulose) (HPC)
[7] = dose: 50.0 mg/kg/injection, schedule: Q01DX009 (ip), vehicle: saline with Tween-80
[8] = dose: 50.0 mg/kg/injection, schedule: Q01DX009 (ip), vehicle: saline
[9] = dose: 50.0 mg/kg/injection, schedule: Q01DX009 (ip), vehicle: Klucel (hydroxypropylcellulose) (HPC)
[10] = dose: 100.0 mg/kg/injection, schedule: Q01DX009 (ip), vehicle: Klucel (hydroxypropylcellulose) (HPC)
[11] = dose: 200.0 mg/kg/injection, schedule: Q01DX009 (ip), vehicle: Klucel (hydroxypropylcellulose) (HPC)
[12] = dose: 60.0 mg/kg/injection, schedule: Q01DX005 (ip), vehicle: saline with Tween-80
[13] = dose: 50.0 mg/kg/injection, schedule: Q01DX005 (ip), vehicle: saline with Tween-80
[14] = dose: 100.0 mg/kg/injection, schedule: Q01DX005 (ip), vehicle: saline with Tween-80

Question: COc1ccc2cccc3c4cccc5ccc(OC)c(c1c23)c54 was tested. Which T/C [1] did it give?
Answer: 97 % of control

Question: What about the T/C [2] of the same compound?
Answer: 99 % of control

Question: And the T/C [3]?
Answer: 99 % of control

Question: What does the source list for O=C(C1=Cc2ccccc2OC1)N1CCN(c2ccccc2Cl)CC1?
Answer: T/C [4]: 106 % of control; T/C [5]: 101 % of control; T/C [6]: 88 % of control

Question: What does the source list for NC(=S)N/N=C/c1cc(-c2cccc(N)c2)ccn1?
Answer: T/C (dose: 6.25 mg/kg/injection, schedule: Q01DX009 (ip), vehicle: saline): 121 % of control; T/C (dose: 9.4 mg/kg/injection, schedule: Q04DX003 (ip), vehicle: saline): 109 % of control; T/C (dose: 18.8 mg/kg/injection, schedule: Q04DX003 (ip), vehicle: saline): 122 % of control; T/C (dose: 25.0 mg/kg/injection, schedule: Q01DX009 (ip), vehicle: saline with Tween-80): 119 % of control; T/C (dose: 25.0 mg/kg/injection, schedule: Q01DX009 (ip), vehicle: saline): 150 % of control; T/C [7]: 122 % of control; T/C [8]: 154 % of control; T/C (dose: 75.0 mg/kg/injection, schedule: Q01DX009 (ip), vehicle: saline with Tween-80): 111 % of control and 122 % of control; T/C (dose: 75.0 mg/kg/injection, schedule: Q01DX009 (ip), vehicle: saline): 158 % of control; T/C (dose: 150.0 mg/kg/injection, schedule: Q04DX003 (ip), vehicle: saline): 123 % of control

Question: Which T/C (dose: 60.0 mg/kg/injection, schedule: Q01DX005 (ip), vehicle: Klucel (hydroxypropylcellulose) (HPC)) does the source give for O=[N+]([O-])c1ccc(Cl)c(C(Nc2nncs2)Nc2nncs2)c1 here?
Answer: 91 % of control

Question: What about the T/C (dose: 120.0 mg/kg/injection, schedule: Q01DX005 (ip), vehicle: Klucel (hydroxypropylcellulose) (HPC)) of the same compound?
Answer: 104 % of control

Question: And the T/C (dose: 240.0 mg/kg/injection, schedule: Q01DX005 (ip), vehicle: Klucel (hydroxypropylcellulose) (HPC))?
Answer: 119 % of control

Question: Which results are given for CN=c1ccc2nc3ccc(N)cc3sc-2c1?
Answer: T/C (dose: 12.5 mg/kg/injection, schedule: Q01DX005 (ip), vehicle: saline): 105 % of control; T/C (dose: 25.0 mg/kg/injection, schedule: Q01DX005 (ip), vehicle: saline): 107 % of control; T/C (dose: 50.0 mg/kg/injection, schedule: Q01DX005 (ip), vehicle: saline): 103 % of control

Question: With CC1CCCN(c2cc3nc[nH]c(=O)c3cc2[N+](=O)[O-])C1 (stereo unspecified) as the compound, how does the T/C [4] read?
Answer: 103 % of control

Question: What about the T/C [5] of the same compound?
Answer: 100 % of control

Question: And the T/C [6]?
Answer: 99 % of control

Question: Which results are given for Nc1ccc(C(=O)O)c(C(=O)O)c1?
Answer: T/C [7]: 100 % of control; T/C (dose: 50.0 mg/kg/injection, schedule: Q04DX003 (ip), vehicle: saline with Tween-80): 91 % of control; T/C (dose: 100.0 mg/kg/injection, schedule: Q01DX009 (ip), vehicle: saline with Tween-80): 104 % of control; T/C (dose: 100.0 mg/kg/injection, schedule: Q04DX003 (ip), vehicle: saline with Tween-80): 91 % of control; T/C (dose: 200.0 mg/kg/injection, schedule: Q01DX009 (ip), vehicle: saline with Tween-80): 100 % of control; T/C (dose: 200.0 mg/kg/injection, schedule: Q04DX003 (ip), vehicle: saline with Tween-80): 91 % of control

Question: CCOC(=O)CS(=O)(=O)CCCS(=O)(=O)CC(=O)OCC was tested. Which T/C [8] did it give?
Answer: 97 % of control

Question: And the T/C (dose: 100.0 mg/kg/injection, schedule: Q01DX009 (ip), vehicle: saline)?
Answer: 96 % of control

Question: What about the T/C (dose: 200.0 mg/kg/injection, schedule: Q01DX009 (ip), vehicle: saline) of the same compound?
Answer: 94 % of control

Question: With CN(C)CCCN1c2ccccc2Sc2ccc(F)cc21 as the compound, how does the T/C [8] read?
Answer: 122 % of control

Question: Which results are given for NC(N)=NS(=O)(=O)c1ccc(N=CC2C(=O)N(c3ccccc3)N(c3ccccc3)C2=O)cc1?
Answer: T/C [9]: 92 % of control; T/C [10]: 92 % of control; T/C [11]: 100 % of control

Question: Which results are given for O=C1C(Cl)=C(Cl)C(=O)C(/C=C/N2CCOCC2)=C1Cl?
Answer: T/C (dose: 50.0 mg/kg/injection, schedule: Q01DX001 (ip), vehicle: saline with Tween-80): 102 % of control; T/C (dose: 100.0 mg/kg/injection, schedule: Q01DX001 (ip), vehicle: saline with Tween-80): 98 % of control

Question: What does the source list for CC(C)=NNC1=NC(C)(C)P(=O)(NCC(=O)O)S1 (stereo unspecified)?
Answer: T/C (dose: 60.0 mg/kg/injection, schedule: Q01DX005 (ip), vehicle: saline): 103 % of control; T/C (dose: 120.0 mg/kg/injection, schedule: Q01DX005 (ip), vehicle: saline): 103 % of control; T/C (dose: 240.0 mg/kg/injection, schedule: Q01DX005 (ip), vehicle: saline): 100 % of control

Question: Which T/C (dose: 12.5 mg/kg/injection, schedule: Q01DX005 (ip), vehicle: Klucel (hydroxypropylcellulose) (HPC)) does the source give for COc1cc(OC)c2c(O)c3c(=O)cc(C)oc3c(-c3c4cc(OC)cc(OC)c4c(O)c4c(=O)cc(C)oc34)c2c1 here?
Answer: 114 % of control

Question: And the T/C (dose: 25.0 mg/kg/injection, schedule: Q01DX005 (ip), vehicle: Klucel (hydroxypropylcellulose) (HPC))?
Answer: 100 % of control

Question: What about the T/C [1] of the same compound?
Answer: 96 % of control

Question: And the T/C [2]?
Answer: 100 % of control

Question: What about the T/C [3] of the same compound?
Answer: 90 % of control

Question: And the T/C (dose: 400.0 mg/kg/injection, schedule: Q01DX005 (ip), vehicle: Klucel (hydroxypropylcellulose) (HPC))?
Answer: 97 % of control

Question: Which T/C [12] does the source give for COc1cc([C@@H]2c3cc4c(cc3C[C@@H]3COC(=O)C32)OCO4)cc(OC)c1O (stereo partly specified) here?
Answer: 100 % of control and 120 % of control

Question: And the T/C (dose: 240.0 mg/kg/injection, schedule: Q01DX005 (ip), vehicle: saline with Tween-80)?
Answer: 107 % of control

Question: For N#CSc1ccc2nc(NCO)sc2c1, which T/C [9] is on record?
Answer: 104 % of control

Question: What about the T/C [10] of the same compound?
Answer: 101 % of control

Question: Which results are given for Cc1[nH]c(=O)nc(CCc2ccccc2)c1-c1ccccc1?
Answer: T/C [12]: 93 % of control; T/C (dose: 120.0 mg/kg/injection, schedule: Q01DX005 (ip), vehicle: saline with Tween-80): 87 % of control

Question: Which T/C [13] does the source give for CC(C)(C)NC1=C([N+](=O)[O-])CCCC1 here?
Answer: 93 % of control

Question: And the T/C [14]?
Answer: 93 % of control

Question: For COc1ccc(C2=C(O)c3cc4ccccc4nc3S2(=O)=O)cc1, which T/C (dose: 50.0 mg/kg/injection, schedule: Q04DX002 (ip), vehicle: saline) is on record?
Answer: 103 % of control

Question: What about the T/C (dose: 100.0 mg/kg/injection, schedule: Q04DX002 (ip), vehicle: saline) of the same compound?
Answer: 100 % of control

Question: What about the T/C (dose: 200.0 mg/kg/injection, schedule: Q04DX002 (ip), vehicle: saline) of the same compound?
Answer: 102 % of control

Question: Which T/C (dose: 0.75 mg/kg/injection, schedule: Q01DX005 (ip), vehicle: saline with Tween-80) does the source give for CC1=C(C)C(=O)c2c(c(O)c3ccccc3c2Cl)C1=O here?
Answer: 96 % of control

Question: And the T/C (dose: 1.5 mg/kg/injection, schedule: Q01DX005 (ip), vehicle: saline with Tween-80)?
Answer: 89 % of control

Question: And the T/C (dose: 3.0 mg/kg/injection, schedule: Q01DX005 (ip), vehicle: saline with Tween-80)?
Answer: 91 % of control

Question: And the T/C (dose: 200.0 mg/kg/injection, schedule: Q01DX005 (ip), vehicle: saline with Tween-80)?
Answer: 93 % of control

Question: Which results are given for CC(C)CC(NC(=O)C(CC(=O)O)NC(=O)C(N)CO)C(=O)N1CCCC1C(=O)NC(CCC(N)=O)C(=O)NC(C(=O)O)C(C)O (stereo unspecified) (H-SDLPQT-OH; configuration not given here)?
Answer: T/C (dose: 9.0 mg/kg/injection, schedule: Q01DX005 (ip), vehicle: water): 110 % of control; T/C (dose: 18.0 mg/kg/injection, schedule: Q01DX005 (ip), vehicle: water): 107 % of control; T/C (dose: 36.0 mg/kg/injection, schedule: Q01DX005 (ip), vehicle: water): 107 % of control; T/C (dose: 72.0 mg/kg/injection, schedule: Q01DX005 (ip), vehicle: water): 107 % of control; T/C (dose: 144.0 mg/kg/injection, schedule: Q01DX005 (ip), vehicle: water): 100 % of control

Question: How did the T/C [1] turn out when O=C1C=CC(=O)C(c2ccccc2)=C1 was run?
Answer: 100 % of control

Question: And the T/C [2]?
Answer: 105 % of control

Question: What about the T/C [3] of the same compound?
Answer: 112 % of control

Question: What does the source list for CCCCCCC1(/C=C\c2ccc(Cl)cc2Cl)OCCO1?
Answer: T/C [9]: 103 % of control; T/C [10]: 110 % of control; T/C [11]: 101 % of control

Question: With CC(C)c1cc(C(=O)[O-])c(O)c(C(C)C)c1.CC(C)c1cc(C(=O)[O-])c(O)c(C(C)C)c1.CC1OC(O[C@H]2/C=C/C=C/C=C/C=C/C=C/C=C/C=C/C(C)[C@@H](O)C(C)C(C)OC(=O)C[C@H](O)C[C@H](O)CC[C@@H](O)[C@H](O)C[C@H](O)C[C@]3(O)CC(O)[C@@H](C(=O)O)[C@H](C2)O3)C(O)C(N)C1O.[Cu+2] (stereo partly specified) as the compound, how does the T/C (dose: 12.5 mg/kg/injection, schedule: Q04DX002 (ip), vehicle: saline with Tween-80) read?
Answer: 103 % of control

Question: And the T/C (dose: 25.0 mg/kg/injection, schedule: Q04DX002 (ip), vehicle: saline with Tween-80)?
Answer: 97 % of control

Question: And the T/C (dose: 50.0 mg/kg/injection, schedule: Q04DX002 (ip), vehicle: saline with Tween-80)?
Answer: 91 % of control

Question: CCCCn1c(C)nc2ccccc21 was tested. Which T/C [13] did it give?
Answer: 100 % of control

Question: And the T/C [14]?
Answer: 100 % of control

Question: CC1=C(C#N)C(=N)OC1(C)C1CC(=O)C=CC1=O (stereo unspecified) was tested. Which T/C (dose: 60.0 mg/kg/injection, schedule: Q01DX005 (ip), vehicle: suspension in saline) did it give?
Answer: 119 % of control
